Measured values reported in ChEMBL document CHEMBL2069192, “Synthesis of 3-(1-alkyl/aminoalkyl-3-vinyl-piperidin-4-yl)-1-(quinolin-4-yl)-propan-1-ones and their 2-methylene derivatives as potential spermicidal and microbicidal agents” (Bioorg Med Chem Lett, 2012).
Converted amounts (≈) assume the structure as drawn. The source made the active and inactive calls. The calls are words filed in the database; no cut-off is given here.

What was measured:
Trichomonas vaginalis [1] = assay: Antimicrobial activity against clinical isolate of Trichomonas vaginalis; assay type: functional
Trichomonas vaginalis [2] = assay: Antimicrobial activity against Trichomonas vaginalis ATCC 25258; assay type: functional
HeLa = assay: Cytotoxicity against human HeLa cells by MTT assay; assay type: cell-based
[3] = Antimicrobial activity against Lactobacillus jensenii
Spermatozoa = assay: Spermicidal activity against human spermatozoa at 10 mg/ml by modified sander-cramer assay; assay type: functional

| SMILES | MIC (Trichomonas vaginalis [1]) | MIC (Trichomonas vaginalis [2]) | EC50 (HeLa) | EC50 [3] | Activity (Spermatozoa) |
| --- | --- | --- | --- | --- | --- |
| C=C[C@H]1CN(CCC)CC[C@H]1CCC(=O)c1ccnc2ccccc12.O=C(O)C(O)C(O)C(=O)O | 25 µg/mL | 100 µg/mL | 276 µg/mL | 526 µg/mL | – |
| C=C[C@H]1CN(CCCC)CC[C@H]1CCC(=O)c1ccnc2ccccc12 | – | – | – | – | inactive |
| CCCCCCCCCc1ccc(OCCOCCOCCOCCOCCOCCOCCOCCOCCO)cc1 [NONOXYNOL 9] | 37.5 µg/mL (≈ 60.8 µM) | 37.5 µg/mL (≈ 60.8 µM) | 33.2 µg/mL (≈ 53.8 µM) | 32.5 µg/mL (≈ 52.7 µM) | – |
| C=C[C@H]1CN(CCCCCC)CC[C@H]1CCC(=O)c1ccnc2ccccc12 | – | – | – | – | inactive |
| C=C[C@H]1CN(CCCCCCCC)CC[C@H]1CCC(=O)c1ccnc2ccccc12 | – | – | – | – | inactive |
| C=C[C@H]1CN(CCCC)CC[C@H]1CC(=C)C(=O)c1ccnc2ccccc12.O=C(O)C(O)C(O)C(=O)O | 3.12 µg/mL | 50 µg/mL | 138 µg/mL | 321 µg/mL | – |
| C=C[C@H]1CN(CCCCC)CC[C@H]1CCC(=O)c1ccnc2ccccc12.O=C(O)C(O)C(O)C(=O)O | 1.5 µg/mL | 3.12 µg/mL | 19.1 µg/mL | 76.3 µg/mL | – |
| C=C[C@H]1CNCC[C@H]1CCC(=O)c1ccnc2ccccc12 [CINCHOTOXIN] | inactive | inactive | > 1000 µg/mL | 449 µg/mL (≈ 1530 µM) | – |
| C=C[C@H]1CN2CC[C@H]1C[C@@H]2[C@@H](O)c1ccnc2ccccc12 [CINCHONINE] | inactive | inactive | 697 µg/mL (≈ 2370 µM) | 428 µg/mL (≈ 1450 µM) | – |
| C=C[C@H]1CN(CC)CC[C@H]1CCC(=O)c1ccnc2ccccc12 | – | – | – | – | inactive |
| C=C[C@H]1CN(CCCCC)CC[C@H]1CC(=C)C(=O)c1ccnc2ccccc12.O=C(O)C(O)C(O)C(=O)O | 12.5 µg/mL | 25 µg/mL | 104 µg/mL | 130 µg/mL | – |
| Cc1ncc([N+](=O)[O-])n1CCO [METRONIDAZOLE] | 2 µg/mL (≈ 11.7 µM) | 62.5 µg/mL (≈ 365 µM) | > 1000 µg/mL | > 1000 µg/mL | inactive |
| C=C[C@H]1CN(CC(C)C)CC[C@H]1CCC(=O)c1ccnc2ccccc12 | – | – | – | – | inactive |
| C=C[C@H]1CN(CC)CC[C@H]1CC(=C)C(=O)c1ccnc2ccccc12.O=C(O)C(O)C(O)C(=O)O | 12.5 µg/mL | 50 µg/mL | 133 µg/mL | 685 µg/mL | – |
